Experimental data published in patent US20230085307A1, “PYRIDAZINONE COMPOUND AND HERBICIDE” (NISSAN CHEMICAL CORPORATION, priority 2019, published 2023).

Legend:
barnyard grass [1] = test: Test Example 5: herbicidal effect by foliage application, plastic box (Table 20, symbol H); format: in vivo, barnyard grass (Echinochloa crus-galli); conditions: foliage application
How it was run: (§1)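 Foliar spray test: emulsion formulation diluted in water to a set application rate, sprayed onto 14-day-old plants raised in diluvial soil at 25° C to 30° C under glass. Both herbicidal effect and crop effect rated visually three weeks later.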

rice flat sedge = test: Test Example 3: herbicidal effect by foliage application, Wagner pot (Table 18, symbol E); format: in vivo, rice flat sedge (Cyperus iria); conditions: 320 g/ha
How it was run: (§2)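 Plants were sown in alluvial soil held under 0.1–0.5 cm standing water and grown 14 days in a greenhouse at 25–30 °C. An emulsifiable formulation, water-diluted to the set dose, was then sprayed onto the foliage, and effects were scored three weeks later using previously defined criteria.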

velvetleaf = test: Test Example 5: herbicidal effect by foliage application, plastic box (Table 20, symbol M); format: in vivo, velvetleaf (Abutilon theophrasti); conditions: foliage application
How it was run: as §1

green foxtail = test: Test Example 5: herbicidal effect by foliage application, plastic box (Table 20, symbol G); format: in vivo, green foxtail (Setaria viridis); conditions: foliage application
How it was run: as §1

lambsquarters = test: Test Example 5: herbicidal effect by foliage application, plastic box (Table 20, symbol O); format: in vivo, lambsquarters (Chenopodium album); conditions: foliage application
How it was run: as §1

Italian ryegrass = test: Test Example 5: herbicidal effect by foliage application, plastic box (Table 20, symbol K); format: in vivo, Italian ryegrass (Lolium multiflorum); conditions: foliage application
How it was run: as §1

windgrass = test: Test Example 5: herbicidal effect by foliage application, plastic box (Table 20, symbol L); format: in vivo, windgrass (Apera spica-venti); conditions: foliage application
How it was run: as §1

false cleavers = test: Test Example 5: herbicidal effect by foliage application, plastic box (Table 20, symbol Q); format: in vivo, false cleavers (Galium spurium); conditions: foliage application
How it was run: as §1

barnyard grass [2] = test: Test Example 3: herbicidal effect by foliage application, Wagner pot (Table 18, symbol H); format: in vivo, barnyard grass (Echinochloa crus-galli); conditions: 320 g/ha
How it was run: as §2

redroot pigweed = test: Test Example 5: herbicidal effect by foliage application, plastic box (Table 20, symbol N); format: in vivo, redroot pigweed (Amaranthus retroflexus); conditions: foliage application
How it was run: as §1

Chinese sprangletop = test: Test Example 3: herbicidal effect by foliage application, Wagner pot (Table 18, symbol D); format: in vivo, chinese sprangletop (Leptochloa chinensis); conditions: 320 g/ha
How it was run: as §2

wild oat = test: Test Example 5: herbicidal effect by foliage application, plastic box (Table 20, symbol I); format: in vivo, wild oat (Avena fatua); conditions: foliage application
How it was run: as §1

blackgrass = test: Test Example 5: herbicidal effect by foliage application, plastic box (Table 20, symbol J); format: in vivo, blackgrass (Alopecurus myosuroides); conditions: foliage application
How it was run: as §1

southern crabgrass = test: Test Example 5: herbicidal effect by foliage application, plastic box (Table 20, symbol F); format: in vivo, southern crabgrass (Digitaria ciliaris); conditions: foliage application
How it was run: as §1

chickweed = test: Test Example 5: herbicidal effect by foliage application, plastic box (Table 20, symbol P); format: in vivo, common chickweed (Stellaria media); conditions: foliage application
How it was run: as §1

persian speedwell = test: Test Example 5: herbicidal effect by foliage application, plastic box (Table 20, symbol R); format: in vivo, Persian speedwell (Veronica persica); conditions: foliage application
How it was run: as §1

[3] = 320 g/ha, three weeks after application
[4] = AAH 80 g/ha, three weeks after application
[5] = 320 g/ha, evaluated three weeks after application

Structure (SMILES): Cc1nn(C)c(=O)c(-c2c(-c3ccccc3O)sc3ccccc23)c1O [1-009]
- herbicidal effect grade, H: barnyard grass (barnyard grass [1]; [3]): 2 (Herbicidal rate of 20% or more and less than 40%)
- herbicidal effect on E (rice flat sedge), rating 0-5 (rice flat sedge): 2 (Herbicidal rate of 20% or more and less than 40%)
- herbicidal effect grade, M: velvetleaf (velvetleaf; [3]): 0 (Herbicidal rate of 5% or less (almost no effect))
- herbicidal effect grade, G: green foxtail (green foxtail; [3]): 3 (Herbicidal rate of 40% or more and less than 70%)
- herbicidal effect grade, O: lambsquarters (lambsquarters; [3]): 0 (Herbicidal rate of 5% or less (almost no effect))
- herbicidal effect grade, K: Italian ryegrass (Italian ryegrass; [3]): 0 (Herbicidal rate of 5% or less (almost no effect))
- herbicidal effect grade, L: windgrass (windgrass; [3]): 0 (Herbicidal rate of 5% or less (almost no effect))
- herbicidal effect grade, Q: false cleavers (false cleavers; [3]): 0 (Herbicidal rate of 5% or less (almost no effect))
- herbicidal effect on H (barnyard grass), rating 0-5 (barnyard grass [2]): 3 (Herbicidal rate of 40% or more and less than 70%)
- herbicidal effect grade, N: redroot pigweed (redroot pigweed; [3]): 0 (Herbicidal rate of 5% or less (almost no effect))
- herbicidal effect on D (Chinese sprangletop), rating 0-5 (Chinese sprangletop): 2 (Herbicidal rate of 20% or more and less than 40%)
- herbicidal effect grade, I: wild oat (wild oat; [3]): 0 (Herbicidal rate of 5% or less (almost no effect))
- herbicidal effect grade, J: blackgrass (blackgrass; [3]): 0 (Herbicidal rate of 5% or less (almost no effect))
- herbicidal effect grade, F: southern crabgrass (southern crabgrass; [3]): 3 (Herbicidal rate of 40% or more and less than 70%)
- herbicidal effect grade, P: chickweed (chickweed; [3]): 4 (Herbicidal rate of 70% or more and less than 90%)
- herbicidal effect grade, R: persian speedwell (persian speedwell; [3]): 4 (Herbicidal rate of 70% or more and less than 90%)

Structure (SMILES): CSc1cc(F)ccc1-c1sc2ccccc2c1-c1c(O)c(C)nn(C)c1=O [1-063]
- herbicidal effect grade, H: barnyard grass (barnyard grass [1]; [3]): 0 (Herbicidal rate of 5% or less (almost no effect))
- herbicidal effect on E (rice flat sedge), rating 0-5 (rice flat sedge): 3 (Herbicidal rate of 40% or more and less than 70%)
- herbicidal effect grade, M: velvetleaf (velvetleaf; [3]): 0 (Herbicidal rate of 5% or less (almost no effect))
- herbicidal effect grade, G: green foxtail (green foxtail; [3]): 0 (Herbicidal rate of 5% or less (almost no effect))
- herbicidal effect grade, O: lambsquarters (lambsquarters; [3]): 3 (Herbicidal rate of 40% or more and less than 70%)
- herbicidal effect grade, K: Italian ryegrass (Italian ryegrass; [3]): 1 (Herbicidal rate of 5% or more and less than 20%)
- herbicidal effect grade, Q: false cleavers (false cleavers; [3]): 2 (Herbicidal rate of 20% or more and less than 40%)
- herbicidal effect on H (barnyard grass), rating 0-5 (barnyard grass [2]): 2 (Herbicidal rate of 20% or more and less than 40%)
- herbicidal effect grade, N: redroot pigweed (redroot pigweed; [3]): 0 (Herbicidal rate of 5% or less (almost no effect))
- herbicidal effect on D (Chinese sprangletop), rating 0-5 (Chinese sprangletop): 0 (Herbicidal rate of 5% or less (almost no effect))
- herbicidal effect grade, I: wild oat (wild oat; [3]): 2 (Herbicidal rate of 20% or more and less than 40%)
- herbicidal effect grade, J: blackgrass (blackgrass; [3]): 3 (Herbicidal rate of 40% or more and less than 70%)
- herbicidal effect grade, F: southern crabgrass (southern crabgrass; [3]): 0 (Herbicidal rate of 5% or less (almost no effect))
- herbicidal effect grade, P: chickweed (chickweed; [3]): 5 (Herbicidal rate of 90% or more (almost completely withered))
- herbicidal effect grade, R: persian speedwell (persian speedwell; [3]): 4 (Herbicidal rate of 70% or more and less than 90%)

Structure (SMILES): CCCC(=O)Oc1c(OC)nn(C)c(=O)c1-c1c(-c2ccc(-c3ccccc3)cc2)sc2ccccc12 [1-167]
- H: barnyard grass, herbicidal effect (barnyard grass [1]; [4]): 0 (Herbicidal rate of 5% or less (almost no effect))
- M: velvetleaf, herbicidal effect (velvetleaf; [4]): 0 (Herbicidal rate of 5% or less (almost no effect))
- G: green foxtail, herbicidal effect (green foxtail; [4]): 0 (Herbicidal rate of 5% or less (almost no effect))
- O: lambsquarters, herbicidal effect (lambsquarters; [4]): 2 (Herbicidal rate of 20% or more and less than 40%)
- K: Italian ryegrass, herbicidal effect (Italian ryegrass; [4]): 0 (Herbicidal rate of 5% or less (almost no effect))
- L: windgrass, herbicidal effect (windgrass; [4]): 0 (Herbicidal rate of 5% or less (almost no effect))
- Q: false cleavers, herbicidal effect (false cleavers; [4]): 3 (Herbicidal rate of 40% or more and less than 70%)
- N: redroot pigweed, herbicidal effect (redroot pigweed; [4]): 3 (Herbicidal rate of 40% or more and less than 70%)
- I: wild oat, herbicidal effect (wild oat; [4]): 0 (Herbicidal rate of 5% or less (almost no effect))
- J: blackgrass, herbicidal effect (blackgrass; [4]): 0 (Herbicidal rate of 5% or less (almost no effect))
- F: southern crabgrass, herbicidal effect (southern crabgrass; [4]): 0 (Herbicidal rate of 5% or less (almost no effect))
- P: chickweed, herbicidal effect (chickweed; [4]): 1 (Herbicidal rate of 5% or more and less than 20%)
- R: persian speedwell, herbicidal effect (persian speedwell; [4]): 3 (Herbicidal rate of 40% or more and less than 70%)

Structure (SMILES): CCCC(=O)Oc1c(C)nn(C)c(=O)c1-c1c(-c2ccc(OC)c(C)c2)sc2ccc(Cl)cc12 [2-120]
- herbicidal effect on H: barnyard grass (barnyard grass [1]; [5]): 0 (Herbicidal rate of 5% or less (almost no effect))
- herbicidal effect on M: velvetleaf (velvetleaf; [5]): 0 (Herbicidal rate of 5% or less (almost no effect))
- herbicidal effect on G: green foxtail (green foxtail; [5]): 0 (Herbicidal rate of 5% or less (almost no effect))
- herbicidal effect on O: lambsquarters (lambsquarters; [5]): 0 (Herbicidal rate of 5% or less (almost no effect))
- herbicidal effect on K: Italian ryegrass (Italian ryegrass; [5]): 0 (Herbicidal rate of 5% or less (almost no effect))
- herbicidal effect on L: windgrass (windgrass; [5]): 0 (Herbicidal rate of 5% or less (almost no effect))
- herbicidal effect on Q: false cleavers (false cleavers; [5]): 4 (Herbicidal rate of 70% or more and less than 90%)
- herbicidal effect on N: redroot pigweed (redroot pigweed; [5]): 0 (Herbicidal rate of 5% or less (almost no effect))
- herbicidal effect on I: wild oat (wild oat; [5]): 0 (Herbicidal rate of 5% or less (almost no effect))
- herbicidal effect on J: blackgrass (blackgrass; [5]): 0 (Herbicidal rate of 5% or less (almost no effect))
- herbicidal effect on F: southern crabgrass (southern crabgrass; [5]): 0 (Herbicidal rate of 5% or less (almost no effect))
- herbicidal effect on P: chickweed (chickweed; [5]): 5 (Herbicidal rate of 90% or more (almost completely withered))
- herbicidal effect on R: persian speedwell (persian speedwell; [5]): 5 (Herbicidal rate of 90% or more (almost completely withered))

Structure (SMILES): COc1cc2sc(-c3ccc(F)cc3)c(-c3c(O)c(C)nn(C)c3=O)c2cc1OC [5-057]
- herbicidal effect on barnyard grass (H) (barnyard grass [1]; [3]): 0 (Herbicidal rate of 5% or less (almost no effect))
- herbicidal effect on velvetleaf (M) (velvetleaf; [3]): 0 (Herbicidal rate of 5% or less (almost no effect))
- herbicidal effect on green foxtail (G) (green foxtail; [3]): 0 (Herbicidal rate of 5% or less (almost no effect))
- herbicidal effect on lambsquarters (O) (lambsquarters; [3]): 0 (Herbicidal rate of 5% or less (almost no effect))
- herbicidal effect on Italian ryegrass (K) (Italian ryegrass; [3]): 0 (Herbicidal rate of 5% or less (almost no effect))
- herbicidal effect on windgrass (L) (windgrass; [3]): 0 (Herbicidal rate of 5% or less (almost no effect))
- herbicidal effect on false cleavers (Q) (false cleavers; [3]): 0 (Herbicidal rate of 5% or less (almost no effect))
- herbicidal effect on wild oat (I) (wild oat; [3]): 0 (Herbicidal rate of 5% or less (almost no effect))
- herbicidal effect on blackgrass (J) (blackgrass; [3]): 0 (Herbicidal rate of 5% or less (almost no effect))
- herbicidal effect on southern crabgrass (F) (southern crabgrass; [3]): 0 (Herbicidal rate of 5% or less (almost no effect))
- herbicidal effect on persian speedwell (R) (persian speedwell; [3]): 4 (Herbicidal rate of 70% or more and less than 90%)

Structure (SMILES): CCOc1ccccc1-c1cc2c(-c3c(O)c(C)nn(C)c3=O)c(-c3ccccc3OCC)sc2cc1OC [5-079]
- herbicidal effect on barnyard grass (H) (barnyard grass [1]; [3]): 0 (Herbicidal rate of 5% or less (almost no effect))
- herbicidal effect on rice flat sedge (E) (rice flat sedge): 0 (Herbicidal rate of 5% or less (almost no effect))
- herbicidal effect on velvetleaf (M) (velvetleaf; [3]): 0 (Herbicidal rate of 5% or less (almost no effect))
- herbicidal effect on green foxtail (G) (green foxtail; [3]): 0 (Herbicidal rate of 5% or less (almost no effect))
- herbicidal effect on lambsquarters (O) (lambsquarters; [3]): 0 (Herbicidal rate of 5% or less (almost no effect))
- herbicidal effect on Italian ryegrass (K) (Italian ryegrass; [3]): 0 (Herbicidal rate of 5% or less (almost no effect))
- herbicidal effect on windgrass (L) (windgrass; [3]): 0 (Herbicidal rate of 5% or less (almost no effect))
- herbicidal effect on false cleavers (Q) (false cleavers; [3]): 5 (Herbicidal rate of 90% or more (almost completely withered))
- herbicidal effect on barnyard grass (H) (barnyard grass [2]): 3 (Herbicidal rate of 40% or more and less than 70%)
- herbicidal effect on Chinese sprangletop (D) (Chinese sprangletop): 0 (Herbicidal rate of 5% or less (almost no effect))
- herbicidal effect on wild oat (I) (wild oat; [3]): 0 (Herbicidal rate of 5% or less (almost no effect))
- herbicidal effect on blackgrass (J) (blackgrass; [3]): 0 (Herbicidal rate of 5% or less (almost no effect))
- herbicidal effect on southern crabgrass (F) (southern crabgrass; [3]): 0 (Herbicidal rate of 5% or less (almost no effect))
- herbicidal effect on persian speedwell (R) (persian speedwell; [3]): 0 (Herbicidal rate of 5% or less (almost no effect))
